Laboratory results taken from the supplement of paper PMC6045584.
± gives the standard deviation of the averaged measurements.

What was measured:
MDV3100 [1] = compound: T1, CNC(=O)c1ccc(N2C(=S)N(c3ccc(C#N)c(C(F)(F)F)c3)C(=O)C2(C)C)cc1F [MDV3100]; assay: area under dose-response curve of surviving fraction (unscaled, Aref=0) (surviving fraction x log10(nM)); higher = more resistant; details: exposure time: 5 days; dose range 0.5-1000 nM
Method in brief: (§1)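 Inhibitor was applied to tumour cell lines at eight concentrations (0.5 to 1000 nM) for five days in 384-well plates. Luminescence from CellTiter-Glo, scaled to DMSO-only wells, gave surviving fractions in three screens per line, and these were fitted by 3-parameter logistic regression with the drc R package. The area under the curve is an unscaled activity area. Aref was 0, and dose was on a log10 scale.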

SAPACITABINE [2] = compound: T2, CCCCCCCCCCCCCCCC(=O)Nc1ccn([C@@H]2O[C@H](CO)[C@@H](O)[C@@H]2C#N)c(=O)n1 [SAPACITABINE]; assay: as above; details: exposure time: 5 days; dose range 0.5-1000 nM
Method in brief: as §1

CANERTINIB [3] = compound: T3, C=CC(=O)Nc1cc2c(Nc3ccc(F)c(Cl)c3)ncnc2cc1OCCCN1CCOCC1 [CANERTINIB]; assay: as above; details: exposure time: 5 days; dose range 0.5-1000 nM
Method in brief: as §1

TIOGUANINE [4] = compound: T4, Nc1nc2[nH]cnc2c(=S)[nH]1 [TIOGUANINE]; assay: as above; details: exposure time: 5 days; dose range 0.5-1000 nM
Method in brief: as §1

AFATINIB [5] = compound: T5, CN(C)C/C=C/C(=O)Nc1cc2c(Nc3ccc(F)c(Cl)c3)ncnc2cc1O[C@H]1CCOC1 [AFATINIB]; assay: as above; details: exposure time: 5 days; dose range 0.5-1000 nM
Method in brief: as §1

SNX-5422 [6] = compound: T6, CC1(C)CC(=O)c2c(C(F)(F)F)nn(-c3ccc(C(N)=O)c(N[C@H]4CC[C@H](OC(=O)CN)CC4)c3)c2C1 [SNX-5422]; assay: as above; details: exposure time: 5 days; dose range 0.5-1000 nM
Method in brief: as §1

BI-2536 [7] = compound: T7, CC[C@@H]1C(=O)N(C)c2cnc(Nc3ccc(C(=O)NC4CCN(C)CC4)cc3OC)nc2N1C1CCCC1 [BI-2536]; assay: as above; details: exposure time: 5 days; dose range 0.5-1000 nM
Method in brief: as §1

MDV3100 [8] = compound: T1, MDV3100; assay: surviving fraction relative to DMSO-only wells; higher = less growth inhibition; details: exposure time: 5 days
Method in brief: (§2)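 Inhibitors were tested at 0.5, 1, 5, 10, 50, 100, 500 and 1000 nM, applied continuously for five days beginning 24 hours after log-phase tumour cells were seeded at 250–500 per well in 384-well plates. CellTiter-Glo luminescence served as the viability measure, expressed as surviving fraction against the median of DMSO-only wells. Each line, screened three times, was kept only with replicate Pearson r >0.7 and median Z' >0.3.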

SAPACITABINE [9] = compound: T2, SAPACITABINE; assay: as above; details: exposure time: 5 days
Method in brief: as §2

CANERTINIB [10] = compound: T3, CANERTINIB; assay: as above; details: exposure time: 5 days
Method in brief: as §2

[11] = compound: Cn1cc(C2=Nc3cc(NC(=O)C(N)C4CCCCC4)cc4c3C2=CNNC4=O)cn1; assay: as above; details: exposure time: 5 days
Method in brief: as §2

TIOGUANINE [12] = compound: T4, TIOGUANINE; assay: as above; details: exposure time: 5 days
Method in brief: as §2

AFATINIB [13] = compound: T5, AFATINIB; assay: as above; details: exposure time: 5 days
Method in brief: as §2

SNX-5422 [14] = compound: T6, SNX-5422; assay: as above; details: exposure time: 5 days
Method in brief: as §2

BI-2536 [15] = compound: T7, BI-2536; assay: as above; details: exposure time: 5 days
Method in brief: as §2

With H23 LUNG the “area under dose-response curve” value (MDV3100 [1]) was 3.13, the “area under dose-response curve” value (SAPACITABINE [2]) was 2.6 and the “area under dose-response curve” value (CANERTINIB [3]) was 1.77. For the same test system, the “area under dose-response curve” value (TIOGUANINE [4]) was 3.25, the “area under dose-response curve” value (AFATINIB [5]) was 1.57 and the “area under dose-response curve” value (SNX-5422 [6]) was 2.03. The “area under dose-response curve” value (BI-2536 [7]) was 1.66, the surviving fraction (MDV3100 [8]; 0.5 nM) was 0.978 ± 0.013 and the surviving fraction (MDV3100 [8]; 1 nM) was 0.95 ± 0.0056. For the same test system, the surviving fraction (MDV3100 [8]; 5 nM) was 0.944 ± 0.03, the surviving fraction (MDV3100 [8]; 10 nM) was 0.942 ± 0.011 and the surviving fraction (MDV3100 [8]; 50 nM) was 0.954 ± 0.026. For the same test system, the surviving fraction (MDV3100 [8]; 100 nM) was 0.9877 ± 0.0021, the surviving fraction (MDV3100 [8]; 500 nM) was 0.93 ± 0.034 and the surviving fraction (MDV3100 [8]; 1000 nM) was 0.891 ± 0.02. For the same test system, the surviving fraction (SAPACITABINE [9]; 0.5 nM) was 0.891 ± 0.02, the surviving fraction (SAPACITABINE [9]; 1 nM) was 0.894 ± 0.025 and the surviving fraction (SAPACITABINE [9]; 5 nM) was 0.916 ± 0.028. The surviving fraction (SAPACITABINE [9]; 10 nM) was 0.924 ± 0.015, the surviving fraction (SAPACITABINE [9]; 50 nM) was 0.868 ± 0.051 and the surviving fraction (SAPACITABINE [9]; 100 nM) was 0.668 ± 0.024. For the same test system, the surviving fraction (SAPACITABINE [9]; 500 nM) was 0.301 ± 0.013, the surviving fraction (SAPACITABINE [9]; 1000 nM) was 0.264 ± 0.014 and the surviving fraction (CANERTINIB [10]; 0.5 nM) was 0.908 ± 0.038. The surviving fraction (CANERTINIB [10]; 1 nM) was 0.86 ± 0.051, the surviving fraction (CANERTINIB [10]; 5 nM) was 0.742 ± 0.031 and the surviving fraction (CANERTINIB [10]; 10 nM) was 0.553 ± 0.032. The surviving fraction (CANERTINIB [10]; 50 nM) was 0.403 ± 0.035, the surviving fraction (CANERTINIB [10]; 100 nM) was 0.3637 ± 0.0035 and the surviving fraction (CANERTINIB [10]; 500 nM) was 0.29 ± 0.011. It also gave a surviving fraction (CANERTINIB [10]; 1000 nM) of 0.252 ± 0.014, a surviving fraction ([11]; 0.5 nM) of 1.05 ± 0.052 and a surviving fraction ([11]; 1 nM) of 1.07 ± 0.092. It also gave a surviving fraction ([11]; 5 nM) of 1.09 ± 0.046, a surviving fraction ([11]; 10 nM) of 1.074 ± 0.0038 and a surviving fraction ([11]; 50 nM) of 1.11 ± 0.1. For the same test system, the surviving fraction ([11]; 100 nM) was 1.1 ± 0.096, the surviving fraction ([11]; 500 nM) was 1.02 ± 0.084 and the surviving fraction ([11]; 1000 nM) was 0.944 ± 0.031. The surviving fraction (TIOGUANINE [12]; 0.5 nM) was 0.962 ± 0.017, the surviving fraction (TIOGUANINE [12]; 1 nM) was 0.966 ± 0.044 and the surviving fraction (TIOGUANINE [12]; 5 nM) was 0.974 ± 0.024. The surviving fraction (TIOGUANINE [12]; 10 nM) was 0.993 ± 0.046, the surviving fraction (TIOGUANINE [12]; 50 nM) was 0.997 ± 0.058 and the surviving fraction (TIOGUANINE [12]; 100 nM) was 1.04 ± 0.03. The surviving fraction (TIOGUANINE [12]; 500 nM) was 0.964 ± 0.02, the surviving fraction (TIOGUANINE [12]; 1000 nM) was 0.966 ± 0.025 and the surviving fraction (AFATINIB [13]; 0.5 nM) was 0.887 ± 0.035. It also gave a surviving fraction (AFATINIB [13]; 1 nM) of 0.817 ± 0.048, a surviving fraction (AFATINIB [13]; 5 nM) of 0.507 ± 0.024 and a surviving fraction (AFATINIB [13]; 10 nM) of 0.42 ± 0.015. For the same test system, the surviving fraction (AFATINIB [13]; 50 nM) was 0.387 ± 0.018, the surviving fraction (AFATINIB [13]; 100 nM) was 0.368 ± 0.029 and the surviving fraction (AFATINIB [13]; 500 nM) was 0.355 ± 0.021. It also gave a surviving fraction (AFATINIB [13]; 1000 nM) of 0.288 ± 0.002, a surviving fraction (SNX-5422 [14]; 0.5 nM) of 1.01 ± 0.051 and a surviving fraction (SNX-5422 [14]; 1 nM) of 1.04 ± 0.023. It also gave a surviving fraction (SNX-5422 [14]; 5 nM) of 1.06 ± 0.057, a surviving fraction (SNX-5422 [14]; 10 nM) of 1.04 ± 0.052 and a surviving fraction (SNX-5422 [14]; 50 nM) of 0.43 ± 0.0053. It also gave a surviving fraction (SNX-5422 [14]; 100 nM) of 0.268 ± 0.013, a surviving fraction (SNX-5422 [14]; 500 nM) of 0.037 ± 0.0027 and a surviving fraction (SNX-5422 [14]; 1000 nM) of 0.0373 ± 0.0035. It also gave a surviving fraction (BI-2536 [15]; 0.5 nM) of 1.09 ± 0.05, a surviving fraction (BI-2536 [15]; 1 nM) of 1.05 ± 0.048 and a surviving fraction (BI-2536 [15]; 5 nM) of 0.991 ± 0.065. For the same test system, the surviving fraction (BI-2536 [15]; 10 nM) was 0.446 ± 0.016, the surviving fraction (BI-2536 [15]; 50 nM) was 0.272 ± 0.015 and the surviving fraction (BI-2536 [15]; 100 nM) was 0.213 ± 0.015. It also gave a surviving fraction (BI-2536 [15]; 500 nM) of 0.16 ± 0.014 and a surviving fraction (BI-2536 [15]; 1000 nM) of 0.142 ± 0.0076.
